# Measured values reported in patent US20250114430A1, “MODIFIED PEPTIDOMIMETICS AND METHODS OF USE” (The University of North Carolina at Chapel Hill, priority 2021, published 2025).
# Entries after “also recorded” stand apart in the source; their conditions may differ. No end group written: not given here.
# Key:
# HEK293T cells [1] = assay: Inhibition of Ca^2+ influx in HEK293T cells after pre-incubation of peptide in CF sputum; type: cell-based; conditions: peptide incubated 6 h in CF sputum, then HEK293T cells, thapsigargin
# Orai1 = Orai1 (Homo sapiens, UniProt Q96D31); assay: TIRF microscopy of Orai1 in the plasma membrane; type: cell-based; design: Endogenous Orai1/store operated Ca^2+ influx have been extensively studied in HEK293T cells; endogenous in cells; host or cells: HEK293T; conditions: Orai1-YFP, 3 h
# Sequence of Orai1 (Q96D31 whole entry): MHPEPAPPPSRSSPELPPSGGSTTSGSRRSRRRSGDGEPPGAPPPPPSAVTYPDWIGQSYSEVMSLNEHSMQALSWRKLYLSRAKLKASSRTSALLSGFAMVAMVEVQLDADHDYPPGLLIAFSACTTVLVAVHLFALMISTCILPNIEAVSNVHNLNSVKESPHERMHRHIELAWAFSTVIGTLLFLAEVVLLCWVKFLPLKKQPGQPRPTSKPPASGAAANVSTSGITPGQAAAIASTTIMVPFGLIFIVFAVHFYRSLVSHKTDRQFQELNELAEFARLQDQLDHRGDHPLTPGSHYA
# Text: To determine whether ELD607 internalized Orai1, total internal reflection fluorescence (TIRF) microscopy was used to measure Orai1 in the plasma membrane. […] However, ELD607 reduced Orai1 plasma membrane expression by ˜50% (FIG. 26, panels A-B). […] We expressed NFAT-GFP in HEK293T cells and evaluated the ability of ELD607 to attenuate NFAT relocation to the nucleus after stimulation of SOCE by confocal microscopy. ELD607 reduced the percentage of NFAT in the nucleus by greater than 50% (FIG. 26, panels C-D).
# HEK293T cells [2] = assay: Store operated Ca^2+ influx in HEK293T cells after incubation of peptide in ARDS BAL; type: cell-based
# Text: ELD607 is active in ARDS patient immune cells. Pulmonary neutrophilic inflammation and increased lung neutrophil elastase levels are common in ARDS patient lungs. We therefore evaluated whether ELD607 remained stable in BAL samples patients with ARDS caused by bacterial pneumonia. […] (FIG. 27, panel A).
# [3] = tested on: P. aeruginosa, Staphylococcus aureus, and Haemophilus influenzae; assay: Murine bacterial infection models (three organisms); type: in vivo, mice
# Method: Mice were dosed intranasally with P. aeruginosa (PA), S. aureus (Sa), or H. influenzae followed by vehicle (saline) or 0.5 mg/kg of ELD100 or ELD607 per mouse. FIG. 19 panels A, F, and K show total cell counts; FIG. 19 panels B, G, and L show BAL macrophages; FIG. 19 panels C, H, and M show BAL neutrophils; FIG. 19 panels D, I, and N show whole lung CFUs; and FIG. 19 panels E, J, and O show spleen CFUs. Top row, P. aeruginosa, middle row, S. aureus, bottom row, H. influenzae. * p<0.05 different from naïve mice; #p<0.05 different from infected mice.
# ELD607 reduces neutrophilia and increases lung bacterial clearance in multiple murine bacterial infection models. Neutrophilia is a common feature of both Gram-positive and Gram-negative lung infections. Accordingly, further studies were performed with P. aeruginosa, Staphylococcus aureus, and Haemophilus influenzae (FIG. 19 panels B, C, G, H, L, and M). After infection with all three organisms, significant levels of bacteria were detected in the lung and spleen, and the infections increased total BAL cell numbers due to neutrophilia, while relative BAL macrophage numbers declined (FIG. 19 panels A-O). […] Moreover, 24 h after infection, about 10^9 CFUs could be detected in murine whole lung homogenate.
# house dust mite allergen = assay: House dust mite (HDM) allergic lung inflammation model; type: in vivo, mice; conditions: HDM 14 days, 0.5 mg/kg intranasally for 2 days
# Method: Mice were exposed to HDM allergen for 14 days, with […] ELD100 or […] ELD607 instilled intranasally for 2 days before sacrifice.
# ELD607 reduces allergic inflammation. Mice were exposed to house dust mite allergen for 14 days. 0.5 mg/kg ELD100 or ELD607 were instilled intranasally for 2 days before sacrifice.
# SCNN1B mice = assay: SCNN1B (βENaC) overexpressing mice, chronic pulmonary inflammation; type: in vivo
# Method: SCNN1B and littermate control mice were exposed to ELD607 or vehicle intranasally on a daily basis for 11 days, starting on day 1 post-partum.
# FIG. 32 panel A: Mice were infected with P. aeruginosa for 24 h; then, 0.5 mg/kg ELD607 was added intratracheally. BAL was collected 24 h later to determine cell counts. SCNN1B mice were given 0.5 mg/kg ELD607 daily for 11 days before sacrifice and BAL collection. FIG. 32 panel B: Survival of bENaC mice.
# Additional models were tested such as the house dust mite (HDM) allergic lung inflammation model (FIG. 20); and SCNN1B-overexpression, wherein mice develop mucus obstruction and spontaneous pulmonary inflammation (FIG. 21).
# Repeated ELD607 exposure reduces chronic inflammation in βENaC overexpressing mice. We added ELD607 to βENaC overexpressing mice, which spontaneously develop chronic infection and neutrophilia and have increased mortality (FIG. 32, panel A).
# [4] = Lung retention and blood exposure after intratracheal dosing in mice; conditions: mouse, in vivo
# Method: FIG. 30 panels B and C show % ELD607 recovered in BAL (FIG. 30 panel B) and blood (FIG. 30 panel C).
# ELD607 is retained in the lung lumen. ELD607-TAMRA or vehicle (saline) was administered to mice intratracheally (0.5 mM, 1 h). Lungs were isolated, fixed, clarified and imaged using light-sheet fluorescence microscopy. […] We then dosed mice with 10 mg/kg ELD607 and collected BAL and blood. ELD607 levels declined over time in the BAL and plateaued with ˜10% of the initial dose detected after 2 h (FIG. 30, panel B).
# αSMA = assay: TGFβ-induced myofibroblast differentiation of CCL-210 fibroblasts (αSMA); type: cell-based, human; conditions: CCL-210, 7 days 10 ng/mL TGFβ, then ELD607 for 48 hours
# Method: FIG. 36A-36C show ELD607 reduces TGFβ-induced myofibroblast formation. FIG. 36A is a schematic showing fibroblast to myofibroblast formation and αSMA deposition. […] Data are mean data from Western blots in normal fibroblasts.
# In vitro Methods: Fibroblasts were exposed to 10 nM TFGβ for 3-7 days as indicated. […] Fibroblasts were then fixed in paraformaldehyde, stained with primary a smooth muscle actin (αSMA) antibody, and imaged by confocal microscopy. Myofibroblasts were exposed to ELD607 without any TGFβ pre-treatment. In some cases, Western blotting was used to probe for αSMA.
# ELD607 reverses myofibroblast differentiation. Increased alpha smooth muscle actin (αSMA) deposition is a hallmark of damaged IPF lungs, and is a common marker for identifying when fibroblasts turn into myofibroblasts—key drivers of fibrosis, and it is generally considered that less αSMA is beneficial (FIG. 36A). It was then determined whether ELD607 alters myofibroblast formation. The human lung fibroblast cell line CCL-210 was treated for 7 days with 10 ng/mL TGFβ to induce myofibroblast differentiation.
# [5] = 0.5 mg/kg intranasal, 24 h after infection
sequence,measurement,setting,value
"VHDIVNMLIRG [ELD607, VHDIVNMLIRG]",inhibition of Ca^2+ influx after pre-exposure to CF sputum,HEK293T cells [1],retained full functionality
same,reduction of Orai1 plasma membrane expression,Orai1,~50%
same,inhibition of store operated Ca^2+ influx after incubation in ARDS BAL,HEK293T cells [2],did not prevent ELD607 from inhibiting store operated Ca^2+ influx
same,lung macrophage levels,[3]; [5],significantly normalized lung macrophage levels
same,neutrophilia,[3]; [5],reduced neutrophilia
same,reduction in lung bacteria,[3]; FIG. 19 panels D and I,3-5 log10
same,sepsis (spleen CFUs),[3]; FIG. 19 panels E and J,significantly reduced sepsis
same,overall outcomes,[3]; all three infections,significantly improved outcomes
same,BAL eosinophilia,house dust mite allergen,significantly reduced
same,BAL macrophages,house dust mite allergen,increased BAL macrophages
same,BAL neutrophilia,house dust mite allergen,significantly reduced BAL neutrophilia
same,survival of βENaC overexpressing mice,SCNN1B mice; daily intranasal 0.5 mg/kg,increased survival
same,neutrophils in SCNN1B (βENaC) mice,"SCNN1B mice; daily intranasal 0.5 mg/kg, 11 days",significantly reduced lung neutrophilia; also recorded: significantly decreased BAL neutrophil levels
same,BAL cells in WT littermate mice,"SCNN1B mice; daily intranasal, 11 days",no effect on WT mice
same,% of the initial dose detected in BAL,[4],~10%
same,% of the original dose detected in the blood,[4],less than 0.3%
same,αSMA levels (western blot and immunofluorescence),αSMA,significantly reduced
